Reference: US20200032125A1, “COMBINED USES OF A PHOSPHOROUS COMPOUND FOR IRON SULPHIDE DISSOLUTION AND BACTERIAL CONTROL” (RHODIA OPERATIONS, priority 2016, published 2020)

System: general heterotrophic bacteria (GHB)
Conditions: iron sulphide present; same level of THPS as the control

## tetrakis (hydroxymethyl) phosphonium sulphate [THPS]
  bacterial kill (reduction in colony forming units per ml) versus control sample without iron sulphide: bacterial kill is still achieved
